# From patent US10300151B2, “Methods and systems for noninvasive fluorescence-based functional imaging of kidneys” (Board of Regents, The University of Texas System, priority 2015, dated 2019)
# Entries after “also recorded” stand apart in the source; their conditions may differ.
# Key:
# kidneys of Balb/c mice [1] = assay: Invasive fluorescence kidney imaging of skin-removed mice after i.v. injection of fluorophore; format: in vivo, mouse; settings: for time of maximum skin fluorescence intensity: FIG. 26 (Cy7: FIG. 10); for time at which skin fluorescence intensity surpasses left and right kidney intensity: kidneys surgically exposed; for peak skin fluorescence intensity as percentage of maximum kidney fluorescence intensity: kidney fluorescence from invasive imaging data, FIG. 26
# Experimental: Invasive and noninvasive imaging of normal mice, UUO mice and sham mice were performed using the following protocol. The protocol for invasive and noninvasive imaging differed in only in that for invasive imaging, the mouse's kidneys are exposed via removal of the mouse's back skin. […] As shown in panel a, the kidneys are paired bean-shaped organs lying on either side of the vertebral column. The right kidney (RK) of a mouse is usually slightly higher than it left kidney (LK). Since the kidneys locate retroperitoneally against the dorsal body wall, LK (shown in panel b) and RK (shown in panel c) can be exposed once the back skin above the kidneys was removed. The interference of skin on kidney imaging can be avoided in such an invasive way. Prior to imaging, hair-removed Balb/c mice were anesthetized using 3% isoflurane. A catheter filled with PBS was inserted into each mouse's tail vein. The mouse, along with its tail vein catheter, was placed in supine position on the stage of fluorescence imaging system, with the mouse's back facing the excitation light and charge-coupled device (CCD) camera. Fluorescence imaging of the each of mice proceeded as follows. Bright-field and fluorescence images of the each mouse was taken before injection with fluorophores. When its breathing rate decreased to 10-14 times per 15 s, the mouse was injected with 200 μL of a fluorophore solution. The fluorophore solutions used were PBS solutions of either an organic dye (Cy3, Cy7, or IRDye 800CW) or GS-AuNPs. The concentrations of Cy3, Cy7 and IRDye 800CW were 100, 10, and 10 μM, respectively, and these solutions were filtered through a 0.02 μm filter before injection. The solution of NIR-emitting GS-AuNPs contained 10 mg/mL gold atom as determined by inductively coupled plasma mass spectrometry (ICP-MS). Once the designated fluorophore solution was injected, whole body fluorescence images of each mouse were collected consecutively until 60 minutes post-injection. To ensure reproducible results, each mouse's anesthesia status was maintained at constant level before injection of fluorophores. Unlike clinical renographic procedures, no diuretic agents were used, and the animals were not hydrated prior to fluorescence imaging. The parameters for acquiring the fluorescence images were shown as follows: Cy3, excitation at 550/10 nm, emission at 600/20 nm, exposure time of 2 s, no binning (FIGS. 4, 6, and 7); Cy7, excitation of 710/10 nm, emission of 790/20 nm, exposure time of 5 s, 2×2 binning (FIGS. 5, 8, and 9); IRDye 800CW, excitation of 710/10 nm, emission of 790/20 nm, 2×2 binning, exposure time of 5 s (FIGS. 21 and 55); GS-AuNPs, excitation of 710/10 nm, emission of 830/20 nm; exposure time of 30 s, 2×2 binning (FIGS. 24, 36, and 54). Regions of interest (ROIs) designated “kidney areas” were defined around the left and right kidneys on the fluorescence image showing high kidney intensity. Four ROIs designated “surrounding tissue areas” were drawn in proximity to the each kidney; the mean values of these four ROIs were considered the “mean intensity of surrounding tissue area” for the respective kidney. The percentage of kidney contrast enhancement was calculated as follows: [formula] For GS-AuNPs, the ROIs of “skin” were chosen from the back area close to the tail, so as to avoid the influence of bright kidneys. The time-dependent fluorescence intensity of skin (or kidneys) and percentage of kidney contrast enhancement (FIGS. 10-14, 22, 23, 25, 26, 37, 56, and 57). The curves were fitted with exponential functions to generate the kinetics of kidney contrast change or the kinetics of accumulation and clearance of the fluorophores in the skin and kidneys (FIGS. 10, 22, and 23). Deconvolution and parametric analysis of the kidney TFICs were performed using Origin 8 (FIGS. 27-35; Tables 1 and 2). Pathological Analysis
# kidneys of Balb/c mice [2] = assay: Noninvasive whole-body fluorescence kidney imaging of intact mice after i.v. injection of fluorophore; format: in vivo, mouse; settings: for duration of kidney contrast/visualisation in noninvasive imaging: after i.v. injection; for excretion route: fluorescence from bladder at 65 min / intestines after 10 min p.i.; for skin clearance half-life: observed during 60 min p.i.; for fraction of first phase of skin intensity increase / fraction of second phase of skin intensity increase / skin fluorescence intensity increase half-life, first phase / skin fluorescence intensity increase half-life, second phase: two-phase exponential growth, FIG. 10
# Experimental: Invasive and noninvasive imaging of normal mice, UUO mice and sham mice were performed using the following protocol. The protocol for invasive and noninvasive imaging differed in only in that for invasive imaging, the mouse's kidneys are exposed via removal of the mouse's back skin.
# Prior to imaging, hair-removed Balb/c mice were anesthetized using 3% isoflurane. A catheter filled with PBS was inserted into each mouse's tail vein. The mouse, along with its tail vein catheter, was placed in supine position on the stage of fluorescence imaging system, with the mouse's back facing the excitation light and charge-coupled device (CCD) camera.
# Fluorescence imaging of the each of mice proceeded as follows. Bright-field and fluorescence images of the each mouse was taken before injection with fluorophores. When its breathing rate decreased to 10-14 times per 15 s, the mouse was injected with 200 μL of a fluorophore solution. The fluorophore solutions used were PBS solutions of either an organic dye (Cy3, Cy7, or IRDye 800CW) or GS-AuNPs. The concentrations of Cy3, Cy7 and IRDye 800CW were 100, 10, and 10 μM, respectively, and these solutions were filtered through a 0.02 μm filter before injection. The solution of NIR-emitting GS-AuNPs contained 10 mg/mL gold atom as determined by inductively coupled plasma mass spectrometry (ICP-MS). Once the designated fluorophore solution was injected, whole body fluorescence images of each mouse were collected consecutively until 60 minutes post-injection. To ensure reproducible results, each mouse's anesthesia status was maintained at constant level before injection of fluorophores. Unlike clinical renographic procedures, no diuretic agents were used, and the animals were not hydrated prior to fluorescence imaging.
# The parameters for acquiring the fluorescence images were shown as follows: Cy3, excitation at 550/10 nm, emission at 600/20 nm, exposure time of 2 s, no binning (FIGS. 4, 6, and 7); Cy7, excitation of 710/10 nm, emission of 790/20 nm, exposure time of 5 s, 2×2 binning (FIGS. 5, 8, and 9); IRDye 800CW, excitation of 710/10 nm, emission of 790/20 nm, 2×2 binning, exposure time of 5 s (FIGS. 21 and 55); GS-AuNPs, excitation of 710/10 nm, emission of 830/20 nm; exposure time of 30 s, 2×2 binning (FIGS. 24, 36, and 54).
# Regions of interest (ROIs) designated “kidney areas” were defined around the left and right kidneys on the fluorescence image showing high kidney intensity. Four ROIs designated “surrounding tissue areas” were drawn in proximity to the each kidney; the mean values of these four ROIs were considered the “mean intensity of surrounding tissue area” for the respective kidney. The percentage of kidney contrast enhancement was calculated as follows:
# [formula] For GS-AuNPs, the ROIs of “skin” were chosen from the back area close to the tail, so as to avoid the influence of bright kidneys. The time-dependent fluorescence intensity of skin (or kidneys) and percentage of kidney contrast enhancement (FIGS. 10-14, 22, 23, 25, 26, 37, 56, and 57). The curves were fitted with exponential functions to generate the kinetics of kidney contrast change or the kinetics of accumulation and clearance of the fluorophores in the skin and kidneys (FIGS. 10, 22, and 23). Deconvolution and parametric analysis of the kidney TFICs were performed using Origin 8 (FIGS. 27-35; Tables 1 and 2). Pathological Analysis
# [3] = in mice, blood; cited from earlier work
# kidneys of UUO mice = assay: Noninvasive fluorescence renography in unilateral ureter obstruction (UUO) and sham mice; format: in vivo, mouse
# Excerpt: To obtain unilateral […] obstruction (UUO) mice, male Balb/c mice (6-8 weeks old, with about 20 g) were anesthetized with isoflurane. For each mouse, the left kidney was exposed an incision on the left flank, and the left ureter was obstructed completely near the renal pelvis using a nonabsorbable suture. For mice in the sham group, the left ureter was exposed using the same surgical procedure but ureter ligation was not performed. Female Balb/c mice (8-10 weeks old, weighing about 20 g) were used as normal (non-UUO) mice for other experiments, such as those shown in FIGS. 4-19. The hair on the Balb/c mice was removed using hair removal lotion at least 24 h before the imaging experiments.
# Fluorescence imaging of the each of mice proceeded as follows. Bright-field and fluorescence images of the each mouse was taken before injection with fluorophores. […] The solution of NIR-emitting GS-AuNPs contained 10 mg/mL gold atom as determined by inductively coupled plasma mass spectrometry (ICP-MS). Once the designated fluorophore solution was injected, whole body fluorescence images of each mouse were collected consecutively until 60 minutes post-injection. […] Unlike clinical renographic procedures, no diuretic agents were used, and the animals were not hydrated prior to fluorescence imaging. […]
# [4] = 0.6 min p.i., noninvasive, N=3, mean±s.d.
# [5] = 60 min p.i., noninvasive, N=3, mean±s.d.
# [6] = noninvasive, single exponential decay
time of maximum skin fluorescence intensity (kidneys of Balb/c mice [1]),time at which skin fluorescence intensity surpasses left and right kidney intensity (kidneys of Balb/c mice [1]; invasive imaging),peak skin fluorescence intensity as percentage of maximum kidney fluorescence intensity (kidneys of Balb/c mice [1]),fraction of first phase of skin intensity increase (kidneys of Balb/c mice [2]),fraction of second phase of skin intensity increase (kidneys of Balb/c mice [2]),"skin fluorescence intensity increase half-life, first phase (kidneys of Balb/c mice [2])","skin fluorescence intensity increase half-life, second phase (kidneys of Balb/c mice [2])",Structure (SMILES),duration of kidney contrast/visualisation in noninvasive imaging (kidneys of Balb/c mice [2]; intact mouse),excretion route (kidneys of Balb/c mice [2]),skin clearance half-life (kidneys of Balb/c mice [2]),further results
35 min p.i.,13.2 min p.i.,95.3%,33.5%,66.5%,1.5 min,7.4 min,"CCN1C(=CC=CC=CC=CC2=[N+](CCCCCC(=O)O)c3ccc(S(=O)(=O)O)cc3C2(C)C)C(C)(C)c2cc(S(=O)(=O)[O-])ccc21 [Cy7, disulfo-Cy7 carboxylic acid]",less than 10 min,can be excreted into urine through renal clearance; also recorded: can also be excreted through a hepatic route,No clearance of Cy7 from the skin was observed during 60 min p.i.,–
–,1.5 min p.i.,–,18.1%,81.9%,0.2 min,2.8 min,"CCN1C(=CC=CC2=[N+](CCCCCC(=O)O)c3ccc(S(=O)(=O)O)cc3C2(C)C)C(C)(C)c2cc(S(=O)(=O)[O-])ccc21 [Cy3, disulfo-Cy3 carboxylic acid]",–,can be excreted into urine through renal clearance,56.5 min,"contrast enhancement of noninvasively imaged mouse kidney (kidneys of Balb/c mice [2]; intact mouse, Ex/Em 550/600 nm): failed to enhance contrast"
25 min p.i.,–,75.5±9.3%,–,–,–,–,"CC1(C)C(/C=C/C2=C(Oc3ccc(S(=O)(=O)O)cc3)C(=C/C=C3/N(CCCCS(=O)(=O)O)c4ccc(S(=O)(=O)[O-])cc4C3(C)C)/CCC2)=[N+](CCCCCC(=O)O)c2ccc(S(=O)(=O)O)cc21 [IRDye 800CW, IRDye 800CW carboxylate]",less than 5 min,–,–,"elimination half-life (t1/2β) [3]: 58.8 ± 4.8 min; clearance half-life from kidney, LK, first component (kidneys of Balb/c mice [1]; invasive imaging, FIG. 23): 4.3 min; clearance half-life from kidney, LK, second component (kidneys of Balb/c mice [1]; invasive imaging, FIG. 23): 28.0 min; clearance half-life from kidney, RK, first component (kidneys of Balb/c mice [1]; invasive imaging, FIG. 23): 4.7 min; clearance half-life from kidney, RK, second component (kidneys of Balb/c mice [1]; invasive imaging, FIG. 23): 18.9 min; fraction of first clearance component, LK (kidneys of Balb/c mice [1]; invasive imaging, FIG. 23): 50.1%; fraction of first clearance component, RK (kidneys of Balb/c mice [1]; invasive imaging, FIG. 23): 46.0%; fraction of second clearance component, LK (kidneys of Balb/c mice [1]; invasive imaging, FIG. 23): 49.9%; fraction of second clearance component, RK (kidneys of Balb/c mice [1]; invasive imaging, FIG. 23): 54.0%; time-dependent intensity curves in sham vs UUO mice (kidneys of UUO mice; LK, RK and skin, FIGS. 56-57): very similar profiles of time-dependent intensity curve in sham and UUO mice; visibility of kidneys in UUO mouse (kidneys of UUO mice; noninvasive imaging, UUO mouse): both UUO LK and RK disappeared after 5 min p.i.; percentage contrast enhancement of left kidney (LK) (kidneys of Balb/c mice [2]; [4]): 67.6±7.1%; percentage contrast enhancement of right kidney (RK) (kidneys of Balb/c mice [2]; [4]): 49.9±9.0%; percentage of contrast enhancement, LK (kidneys of Balb/c mice [2]; [5]): −4.7±0.8%; percentage of contrast enhancement, RK (kidneys of Balb/c mice [2]; [5]): −4.8±5.1%; time at which skin fluorescence intensity is halfway to saturation (kidneys of Balb/c mice [2]; noninvasive imaging, FIG. 22): 4.1 min; decay half-life of percentage contrast enhancement, LK (kidneys of Balb/c mice [2]; [6]): 4.2 min; decay half-life of percentage contrast enhancement, RK (kidneys of Balb/c mice [2]; [6]): 4.5 min"
